A value given as a limit tells only on which side of the number the result lay.

Regarding `Cc1oc2c(C)c(C)c(NC(=O)c3ccc(F)cc3)c(C)c2c1-c1ccccc1`, the melting point lay in the range of 242 to 245 °C. As for `Nc1ccc2nc(O)c(O)nc2c1N`, the figure is above 300 °C; as for `COc1cc(C(C)C)c(Oc2cnc(N)nc2N)cc1-c1ccco1`, 199 to 203 °C. As for `O=C1c2ccccc2C(=O)N1CCOc1cccc2c1CCC2`, the figure is 128 to 132 °C; as for `CCOC(=O)C(=Cc1cccn2c(Br)c(C)nc12)N=[N+]=[N-]`, 108 to 110 °C; as for `OCCc1cccc(Nc2ccc3nc(N[C@@H]4CCc5ccccc54)ccc3c2)c1`, 109 °C. Next, `O=c1[nH]ccn1-c1ccc(OCC(F)(F)C(F)F)cc1`: 157 to 159 °C. The molecule `CCCCN(C)S(=O)(=O)C1=C(C)NC(C)=C(C(=O)OCC2CC2)C1c1cccc([N+](=O)[O-])c1` (stereo unspecified) registered a melting point of 93 to 96 °C. Turning to `CC1CCCN(c2c(Br)cc3c4c(cccc24)C(=O)N(O)C3=O)C1` (stereo unspecified), the melting point is above 250 °C. Next, `COc1c(C(C)=O)cnc2c(N)cccc12`: 76 to 77 °C; `CCCCNC(=O)Nc1ncc2cc(-c3c(Cl)cccc3Cl)c(NC(=O)NCCCC)nc2n1`: 200 to 202 °C.

In turn, `COc1ccc(Cc2ccc3c(c2)OCO3)c(OC)c1` gave a melting point of 51 °C. As for `OCCOc1cccc(-n2ccnc2)c1`, the figure is 81 to 83 °C.

For `C=CCSc1cc(C(=O)O)cc(N)c1C(=O)c1ccccc1`, the melting point fell in the range of 152 to 154 °C.

As for `CONc1ccc([N+](=O)[O-])cc1[N+](=O)[O-]`, the melting point was 110 to 112 °C. Next, `CCCCCCCCC=CC(=O)c1c(C)[nH]n(-c2ccccc2)c1=O`: 40 °C. In turn, `Cn1c(=O)n(Cc2ccc(F)cc2)c(=O)c2cc(C(=O)c3nc(-c4cccnc4)c4ccccn34)ccc21` came in with a melting point of 207 °C. For `CC=COC(=O)c1c(S(=O)(=O)NC(=O)Nc2nc(C)cc(C)n2)c(C)nn1C`, the melting point was 180 to 183 °C. As for `CCOC(=O)c1cc(OC)c(C(=O)OCC)cc1Br`, the figure is 61 to 63 °C. Next, `COC(=O)CC(=O)Nc1cccc(COc2ccc(C(C)=O)c(F)c2)c1`: 102 to 104 °C. Next, `CCCC(C)Nc1c([N+](=O)[O-])cc(S(C)(=O)=O)c(C)c1[N+](=O)[O-]` (stereo unspecified): 85 to 88 °C; `CCOC(=O)c1cncc(-c2cnc3c(c2)N(Cc2cc(F)ccc2F)CCN3)c1`: 169 to 172 °C.

Regarding `CCOC(=O)c1cn(CCc2ccccc2)c2oc(CN3CCOCC3)cc2c1=O`, the melting point was in the range of 150 to 153 °C. Molecule `O=c1[nH]c2ncc(-c3ccncc3)nc2n1CC1CCCCC1` showed a melting point of 267 to 269 °C. In turn, `Nc1nc(-c2ccc3ncccc3c2)c(-c2ccccn2)s1` registered a melting point of 226 °C. Next, `CC(=O)c1cn(-c2c(Cl)cc(C(F)(F)F)cc2Cl)nc1C(F)(F)F`: 134 °C; `CNC(=O)c1c(I)c(NC(C)=O)c(I)c(C(=O)NCCC(=O)O)c1I`: 190 °C. Next, `O=C1Nc2ccc(Br)cc2C1c1ncnc2c1cnn2C1CCCCC1` (stereo unspecified): 305 to 308 °C; `Nc1nnnc(-c2c[nH]nn2)c1-c1cnnnn1`: 215 °C; `O=C1c2ccccc2C(=O)N1COc1ccncc1`: 129 to 131 °C. As to `COc1ccc(Cl)cc1C(=O)NC1COc2cc(C)ccc2C1` (stereo unspecified), the melting point was 97 °C. `O=C(O)c1ccccc1CCc1n[nH]c2c1c(=O)n(-c1ccccc1)c1ncccc21` registered a melting point of 302 to 308 °C. Next, `O=c1[nH]c2cc(OCCN3CCC(Cc4ccccc4)CC3)ccc2o1`: 176 to 177 °C; `N#CC(C(N)=O)=C1Cc2ccccc2SN1`: 260 to 267 °C; `CCCn1c(=S)[nH]c2ccc(I)cc2c1=O`: above 200 °C. As to `COc1ccc(N2CCN(c3c(C)c(C)c4c(c3C)C(c3ccc(OC(F)(F)F)cc3)C(C)(C)O4)CC2)cc1` (stereo unspecified), the melting point lay within 147 to 148 °C. Molecule `N#Cc1cc(N)ccc1N1CCC(N2CCCCC2)CC1` had a melting point of 110 to 112 °C. As for `Cc1cc(C(=O)NCO)ncc1C(c1c(F)ccc(F)c1F)S(=O)(=O)CCC(C)(F)F` (stereo unspecified), the figure is 161 to 162 °C; as for `C[C@@H]1OC(=O)N(C(=O)O)[C@H]1c1ccc(F)c(F)c1` (relative stereo), 80 to 83 °C; as for `CC1(C)SCNC1C(=O)O` (stereo unspecified), 209 to 210 °C.

Consider `COC(=O)c1cncn1C1c2ccsc2CC1(C)C` (stereo unspecified), for which the melting point fell in the range of 62 to 63 °C. In turn, `CC(C)n1c(C=O)c(-c2ccc(F)cc2)c(-c2ccc(F)cc2)c1C(=O)Nc1ccc(CC(=O)N(C)C)cc1` displayed a melting point of 226 to 227 °C.

`CN(C(=O)CCSC(c1ccccc1)(c1ccccc1)c1ccccc1)c1nnc(-c2cccnc2)s1` came in with a melting point of 60 to 75 °C. For the molecule `CS(=O)c1ccc(CSc2nc(-c3ccc(F)cc3)c(-c3ccnc(Cl)c3)[nH]2)cc1` (stereo unspecified), the melting point was found to be 179 °C. As for `Cc1ccc2c(c1)C=Cc1cc(C(C)C)ccc1C2c1cn(-c2ccnc(NCC(=O)Nc3nc(CC(=O)O)cs3)n2)c(=O)[nH]c1=O` (stereo unspecified), the figure is 215 to 220 °C; as for `Clc1cc(Cl)cc(CC(Cl)CC(Cl)(Cl)Cl)c1` (stereo unspecified), 44.5 to 46.5 °C; as for `COc1c(Nc2ncc(Cl)c(N[C@@H]3CCCC[C@H]3NS(C)(=O)=O)n2)ccc2c1CCCC(NCCO)C2` (stereo partly specified), 92 to 94 °C. As to `O=C1C(=O)N(CCCN2CCN(C(=O)N(c3ccccc3)c3ccccc3)CC2)c2ccccc21`, the melting point fell in the range of 163 to 164 °C.

`Oc1ccc(Oc2ncc(Cl)cc2Cl)cc1`: the melting point lay within 122 to 124 °C. Molecule `N#Cc1ncn2c(C(F)(F)F)cc(-c3ccc(Cl)cc3)nc12` returned a melting point of 205 °C. As for `Cc1cc(-n2ccnc2)c2cccc(OCc3c(Cl)ccc(S(=O)(=O)N4CCC[C@H]4C(=O)NCCN4CCOCC4)c3Cl)c2n1`, the figure is 100 °C; as for `Nc1nc2ccc(S(=O)(=O)n3c(CCC(=O)O)cc4nc(Cl)ccc43)cc2s1`, above 260 °C; as for `CCOC(=O)c1cn2c(cc(Cl)c3ccccc32)n1`, 169 to 170 °C. As for `CC(C)CCCC(C)C1CCC2C3CC=C4CC(N)CCC4(C)C3CCC12C` (stereo unspecified), the figure is 92 to 94 °C; as for `O=Cc1ccc(OCc2cn3c(Cl)cccc3n2)cc1`, 126 to 130 °C; as for `O=C(O)c1cc(NC(=O)C(F)(F)F)c(C(=O)c2ccccc2)c(OCc2ccccc2)c1`, 213 °C.

On to `O=C1c2c(F)c(F)c(F)c(F)c2C(=O)N1c1ccccc1`, for which the melting point was in the range of 210 to 211 °C. Regarding `CCn1cc(S(=O)(=O)NC(=O)c2cn3cc(C(F)(F)F)cc(Cl)c3n2)c(C)n1`, the melting point was 189 to 190 °C.

`Cc1cc(C)c(C(O)c2ccc(C(C)C)cc2)c(O)c1` (stereo unspecified) yielded a melting point of 103 to 104 °C. The molecule `Cn1cnc(-c2ccc(NC(=C3C(=O)Oc4ccccc43)c3ccc(C(C)(C)N)cc3)cc2)c1` came in with a melting point above 280 °C. As for `O=C1C2=C(CCCC2)C(=O)N1c1c(F)cc(Cl)c2c1CC(CO)O2` (stereo unspecified), the melting point fell in the range of 193 to 195 °C. Turning to `Clc1cccc(Cl)c1C=Nc1c2c(nc3ccccc13)CCCC2`, the melting point was in the range of 200 to 202 °C.

As for `Cc1cc(C)c(NC(=O)CCCCCl)c(Cl)c1`, the melting point lay in the range of 80.6 to 82.9 °C. `CC1CC(=O)c2c(ccc(Cl)c2Cl)O1` (stereo unspecified) gave a melting point of 135 to 140 °C. Next, `CN1CCCC1C1CCCN(CC(=O)N2c3ccccc3NC(=O)c3ccccc32)C1` (stereo unspecified): 161 to 163 °C. As for `COc1ccc(-c2c(Cl)c(CN3C(=O)COC3=O)nc3sc4c(c23)CCC(C(N)=O)C4)cc1` (stereo unspecified), the figure is 155 to 156 °C. Next, `Cc1noc(NS(=O)(=O)c2ccc(-c3ccc(C(=O)O)cc3)s2)c1Br`: 219 to 228 °C; `O=C(Nc1cnccn1)C(Cl)(Cl)Cl`: 68 °C. As for `CCCOc1ccccc1-c1nc2cc3c(cc2c(=O)[nH]1)NCN3Cc1ccc(OC)cc1`, the melting point is 130 to 131 °C. Next, `COC(=O)[C@@]1(C)Oc2ccccc2N(C)C1=O`: 76 to 78 °C. For `COC(=O)CCCCCOC1OC(CO)C(O)C(O)C1NC(C)=O` (stereo unspecified), the melting point lay in the range of 154 to 155 °C. Next, `CC(C)(C)c1cc(CCc2ccccc2NC(=O)NC2CCCCC2)cc(C(C)(C)C)c1O`: 198 to 200 °C; `OCCN1CCN(Cc2nnc3n2-c2ccc(Cl)cc2C(c2ccccc2)=NC3)CC1`: 113 to 118 °C. As for `Cc1c(CC2CCc3c(c4ccccc4n3CC3CCCC3)C2=O)ncn1C(c1ccccc1)(c1ccccc1)c1ccccc1` (stereo unspecified), the figure is 177 to 179 °C; as for `Nc1ccccc1COc1ccn(-c2ccc(Cl)cc2)n1`, 81 to 83 °C; as for `O=C(NC1CN2CCC1CC2)c1cccc2c1CCC2` (racemic), 158 °C.

The molecule `O=C(C=C1c2ccccc2-c2ccccc21)NCCCCCC(=O)NO` registered a melting point of 174 to 176 °C. On to `CCOC(=O)N(c1ccccc1-n1nc(C(=O)O)nc1CCl)c1cccc(C)c1C`, for which the melting point lay within 188 to 190 °C. As for `O=C(O)C(=O)c1ccc(OCC(=O)N2CCN(c3ccccc3)CC2)cc1`, the figure is 188 to 192 °C; as for `CC(C)c1cc2c(c3c1C(=O)N(CCl)S3(=O)=O)OCO2`, 174 to 176 °C. As for `O=C(NC1CCCCC1)NC1(N=NC2(NC(=O)NC3CCCCC3)CCCCC2)CCCCC1`, the figure is 105 to 109 °C; as for `CC(C)(Cl)c1cc(C(C)(C)Cl)cc(C(C)(C)Cl)c1`, 64 °C. As for `CC(C)(Cc1ccc(OCCCC(=O)O)cc1)NCC(O)c1cc(OCc2ccccc2)cc2c1OCC(=O)N2` (stereo unspecified), the figure is 216 to 218 °C. Turning to `O=C1C2CCCCN2C(=O)N1c1c(F)cc(Cl)c2nc(Cl)sc12` (stereo unspecified), the melting point was in the range of 168 to 170 °C. Next, `CNC(=O)c1cccc(NC(=O)Cc2cccc(Br)c2)c1`: 176 to 178 °C. As for `CN(Cc1cc2c(=O)c(C(=O)NCc3ccc(Cl)cc3)cn(C)c2o1)CC(O)c1ccccn1` (stereo unspecified), the figure is 130 to 132 °C.
